Data reported in ChEMBL document CHEMBL4651402, “Screening of ~5500 FDA-approved drugs and clinical candidates for anti-SARS-CoV-2 activity” (2021).

Test system: SARS-CoV-2
Assay: microbe, parasite or virus in culture
Settings: Severe acute respiratory syndrome coronavirus 2, Vero C1008, 48 h

Cc1c(O)c(=O)ccn1C [DEFERIPRONE]
IC50: > 20 µM | IC50 (read-out: pIC50 (converted)): > 20 µM

CC(=O)N(O)CCCCCNC(=O)CCC(=O)N(O)CCCCCNC(=O)CCC(=O)N(O)CCCCCN [DEFEROXAMINE]
IC50: > 20 µM | IC50 (read-out: pIC50 (converted)): > 20 µM

CC(=O)OCC(=O)[C@@]12N=C(C)O[C@@H]1C[C@H]1[C@@H]3CCC4=CC(=O)C=C[C@]4(C)[C@H]3[C@@H](O)C[C@@]12C [DEFLAZACORT]
IC50: > 20 µM | IC50 (read-out: pIC50 (converted)): > 20 µM

COc1cc2c(cc1OC)[C@@H]1C(=O)c3ccc4c(c3O[C@@H]1CO2)C=CC(C)(C)O4 [DEGUELIN]
IC50: > 20 µM | IC50 (read-out: pIC50 (converted)): > 20 µM

CC(=O)C1C(=O)C=C(C)OC1=O (stereo not given) [DEHYDROACETIC ACID]
IC50: > 20 µM | IC50 (read-out: pIC50 (converted)): > 20 µM

CC(=O)O[C@H]1CC[C@@]2(C)C(=CC[C@@H]3[C@@H]2CC[C@]2(C)C(=O)CC[C@@H]32)C1 [DEHYDROEPIANDROSTERONE ACETATE]
IC50: > 20 µM | IC50 (read-out: pIC50 (converted)): > 20 µM

CC(C)Nc1cccnc1N1CCN(C(=O)c2cc3cc(NS(C)(=O)=O)ccc3[nH]2)CC1 [DELAVIRDINE]
IC50: > 20 µM | IC50 (read-out: pIC50 (converted)): > 20 µM

O=C1CN=C(c2ccccc2Cl)c2cc(Cl)ccc2N1 [DELORAZEPAM]
IC50: > 20 µM | IC50 (read-out: pIC50 (converted)): > 20 µM

CN(C)[C@@H]1C(O)=C(C(N)=O)C(=O)[C@@]2(O)C(O)=C3C(=O)c4c(O)ccc(Cl)c4[C@@H](O)[C@H]3C[C@@H]12 [DEMECLOCYCLINE]
IC50: > 20 µM | IC50 (read-out: pIC50 (converted)): > 20 µM

CC[N+](CC)(CC(=O)Nc1c(C)cccc1C)Cc1ccccc1 [DENATONIUM]
IC50: > 20 µM | IC50 (read-out: pIC50 (converted)): > 20 µM

OC(Cn1ccnc1)c1ccc(CCc2ccccc2)cc1 (stereo not given) [DENZIMOL]
IC50: > 20 µM | IC50 (read-out: pIC50 (converted)): > 20 µM

CNCCc1ccc(O)c(O)c1 [DEOXIEPINEPHRINE]
IC50: > 20 µM | IC50 (read-out: pIC50 (converted)): > 20 µM

OC[C@H]1NC[C@@H](O)[C@@H](O)[C@@H]1O [DEOXYMANNOJIRIMYCIN]
IC50: > 20 µM | IC50 (read-out: pIC50 (converted)): > 20 µM

CC(=O)[C@@]1(O)CC[C@H]2[C@@H]3CCC4=CC(=O)C=C[C@]4(C)[C@H]3[C@@H](O)C[C@@]21C [DEPRODONE]
IC50: > 20 µM | IC50 (read-out: pIC50 (converted)): > 20 µM

CNCCCN1c2ccccc2CCc2ccccc21 [DESIPRAMINE]
IC50: > 20 µM | IC50 (read-out: pIC50 (converted)): > 20 µM

C[C@@H]1C[C@H]2[C@@H]3CCC4=CC(=O)C=C[C@]4(C)[C@@]3(F)[C@@H](O)C[C@]2(C)[C@H]1C(=O)CO [DESOXIMETASONE]
IC50: > 20 µM | IC50 (read-out: pIC50 (converted)): > 20 µM

CC(=O)OCC(=O)[C@H]1CC[C@H]2[C@@H]3CCC4=CC(=O)CC[C@]4(C)[C@H]3CC[C@]12C [DESOXYCORTICOSTERONE ACETATE]
IC50: > 20 µM | IC50 (read-out: pIC50 (converted)): > 20 µM

CC(C)(C)C(=O)OCC(=O)[C@H]1CC[C@H]2[C@@H]3CCC4=CC(=O)CC[C@]4(C)[C@H]3CC[C@]12C [DESOXYCORTICOSTERONE PIVALATE]
IC50: > 20 µM | IC50 (read-out: pIC50 (converted)): > 20 µM

C[C@]12CC[C@H]3[C@@H](CCC4=CC(=O)CC[C@@]43C)[C@@H]1CC[C@@H]2C(=O)CO [DESOXYCORTICOSTERONE]
IC50: > 20 µM | IC50 (read-out: pIC50 (converted)): > 20 µM

CN(C)CC(c1ccc(O)cc1)C1(O)CCCCC1 (stereo not given) [DESVENLAFAXINE]
IC50: > 20 µM | IC50 (read-out: pIC50 (converted)): > 20 µM

Cc1cccc(Cc2c[nH]cn2)c1C [DETOMIDINE]
IC50: > 20 µM | IC50 (read-out: pIC50 (converted)): > 20 µM

CN1C(=O)[C@@H](NC(=O)c2cc3ccccc3[nH]2)N=C(c2ccccc2)c2ccccc21 [DEVAZEPIDE]
IC50: > 20 µM | IC50 (read-out: pIC50 (converted)): > 20 µM

C[C@@H]1C[C@H]2[C@@H]3CCC4=CC(=O)C=C[C@]4(C)[C@@]3(F)[C@@H](O)C[C@]2(C)[C@@]1(O)C(=O)CO [DEXAMETHASONE]
IC50: > 20 µM | IC50 (read-out: pIC50 (converted)): > 20 µM

c1ccc([C@@H]2CN3CCSC3=N2)cc1 [DEXAMISOLE]
IC50: > 20 µM | IC50 (read-out: pIC50 (converted)): > 20 µM

CN(C)CC[C@@H](c1ccc(Cl)cc1)c1ccccn1 [DEXCHLORPHENIRAMINE]
IC50: > 20 µM | IC50 (read-out: pIC50 (converted)): > 20 µM

O=C1CC[C@@](c2ccccc2)(C2CCN(Cc3ccccc3)CC2)C(=O)N1 [DEXETIMIDE]
IC50: > 20 µM | IC50 (read-out: pIC50 (converted)): > 20 µM

COC(=O)C1=C(C)NC(C)=C(C(=O)OCCCN2CCC(c3ccccc3)(c3ccccc3)CC2)[C@@H]1c1cccc([N+](=O)[O-])c1 [DEXNIGULDIPINE]
IC50: > 20 µM | IC50 (read-out: pIC50 (converted)): > 20 µM

CC(C)(CO)[C@@H](O)C(=O)NCCCO [DEXPANTHENOL]
IC50: > 20 µM | IC50 (read-out: pIC50 (converted)): > 20 µM

C[C@@H](CN1CC(=O)NC(=O)C1)N1CC(=O)NC(=O)C1 [DEXRAZOXANE]
IC50: > 20 µM | IC50 (read-out: pIC50 (converted)): > 20 µM

CCN(CCCC(=O)C1CCCCC1)[C@@H](C)Cc1ccc(OC)cc1 [DEXSECOVERINE]
IC50: > 20 µM | IC50 (read-out: pIC50 (converted)): > 20 µM

CCOC(=O)[C@]1(c2ccccc2)CCC=C[C@H]1N(C)C [DEXTILIDINE]
IC50: > 20 µM | IC50 (read-out: pIC50 (converted)): > 20 µM

CC[C@H]1C(C)=NN=C(c2ccc(OC)c(OC)c2)c2cc(OC)c(OC)cc21 [DEXTOFISOPAM]
IC50: > 20 µM | IC50 (read-out: pIC50 (converted)): > 20 µM

C[N+](C)(C)C[C@H](O)CC(=O)O [DEXTROCARNITINE]
IC50: > 20 µM | IC50 (read-out: pIC50 (converted)): > 20 µM

COc1ccc2c(c1)[C@]13CCCC[C@@H]1[C@H](C2)N(C)CC3 [DEXTROMETHORPHAN]
IC50: > 20 µM | IC50 (read-out: pIC50 (converted)): > 20 µM

OC[C@H]1OC(O)[C@H](O)[C@@H](O)[C@@H]1O (stereo not given in full) [DEXTROSE]
IC50: > 20 µM | IC50 (read-out: pIC50 (converted)): > 20 µM

Nc1cc2[nH]cnc2c(=O)[nH]1 [DEZAGUANINE]
IC50: > 20 µM | IC50 (read-out: pIC50 (converted)): > 20 µM

C[C@@]12CCCCC[C@@H](Cc3ccc(O)cc31)[C@@H]2N [DEZOCINE]
IC50: > 20 µM | IC50 (read-out: pIC50 (converted)): > 20 µM

CC(=O)Oc1cccc2c1C(=O)c1c(OC(C)=O)cc(C(=O)O)cc1C2=O [DIACEREIN]
IC50: > 20 µM | IC50 (read-out: pIC50 (converted)): > 20 µM

CC(=O)Nc1ccc(OC(C)=O)cc1 [DIACETAMATE]
IC50: > 20 µM | IC50 (read-out: pIC50 (converted)): > 20 µM

CCN(CC)CCOc1ccc2nc(N(C)C)sc2c1 [DIAMTHAZOLE]
IC50: > 20 µM | IC50 (read-out: pIC50 (converted)): > 20 µM

CC(=O)Nc1c(I)c(NC(C)=O)c(I)c(C(=O)O)c1I [DIATRIZOIC ACID]
IC50: > 20 µM | IC50 (read-out: pIC50 (converted)): > 20 µM

COc1ccc(Cc2cnc(N)nc2N)cc1OC [DIAVERIDINE]
IC50: > 20 µM | IC50 (read-out: pIC50 (converted)): > 20 µM

CN1C(=O)CN=C(c2ccccc2)c2cc(Cl)ccc21 [DIAZEPAM]
IC50: > 20 µM | IC50 (read-out: pIC50 (converted)): > 20 µM

CCOC(=O)NC1=C(N2CC2)C(=O)C(NC(=O)OCC)=C(N2CC2)C1=O [DIAZIQUONE]
IC50: > 20 µM | IC50 (read-out: pIC50 (converted)): > 20 µM

CC1=Nc2ccc(Cl)cc2S(=O)(=O)N1 [DIAZOXIDE]
IC50: > 20 µM | IC50 (read-out: pIC50 (converted)): > 20 µM

CN(C)CCN1C(=O)c2ccccc2N(C)c2ccccc21 [DIBENZEPIN]
IC50: > 20 µM | IC50 (read-out: pIC50 (converted)): > 20 µM

N[C@@H](Cc1cc(Br)c(O)c(Br)c1)C(=O)O [DIBROMOTYROSINE]
IC50: > 20 µM | IC50 (read-out: pIC50 (converted)): > 20 µM

CC(=O)OCC(=O)[C@@]1(O)CC[C@H]2[C@@H]3CCC4=CC(=O)C=C[C@]4(C)[C@@]3(Cl)[C@@H](Cl)C[C@@]21C [DICHLORISONE ACETATE]
IC50: > 20 µM | IC50 (read-out: pIC50 (converted)): > 20 µM

O=C(O)C(Cl)Cl [DICHLOROACETIC ACID]
IC50: > 20 µM | IC50 (read-out: pIC50 (converted)): > 20 µM

OCc1ccc(Cl)cc1Cl [DICHLOROBENZYL ALCOHOL]
IC50: > 20 µM | IC50 (read-out: pIC50 (converted)): > 20 µM
